Measured values: patent US11338004B2, “Composition for preventing or treating cranial nerve disease comprising fomes fomentarius extract, fraction thereof, or compound isolated therefrom as active ingredient” (priority 2015, dated 2022)

Columns and labels:
AChE = AChE (Homo sapiens, UniProt P22303); assay: Acetylcholinesterase inhibitory activity; type: biochemical; settings: read-out: acetylcholinesterase inhibitory activity (%)
Description: AChE and acetylthocholine iodine (ATC) were dissolved in 100 mM phosphate buffer (pH 8.0) to prepare 0.25 U/mL and 75 mM, respectively. […] 2.8 mL of phosphate buffer (100 mM, pH 8.0), 30 μL of AChE (0.25 U/mL), and 100 μL of DTNB were added to 30 μL of the extract, and were mixed. Then, the mixture was preincubated at 37° C. for 10 minutes. Then, 30 μL of substrate ATC was added thereto and was reacted at 37° C. for 3 minutes, and then the absorbance was measured at 412 nm. As a control group, 30 μL of 100 mM phosphate buffer (pH 8.0) was added instead of the extract, and then was measured.

[1] = test system: NO production in mouse BV2 cell line; assay: NO (nitrite) production in LPS-treated BV2 cells, Griess reagent; type: cell-based
Description: A mouse BV2 cell line was stored and maintained in a humidified incubator at 37° C. under a 5% CO2 condition using a DMEM culture medium supplemented with 10% FBS, 100 U/ml of penicillin and 100 μg/ml of streptomycin, was trypsinized, and was subcultured.
In the present disclosure, the amount of nitrite produced was measured to determine the anti-inflammatory activity of the Fomes fomentarius fraction. Nitrite is a major stable product of nitric oxide (NO), one of the inflammatory mediators, and was measured by using Griess reagent.
First, the cells were cultured at 5×10^5 cells/ml in a 6-well plate. They were treated with Fomes fomentarius extracts having various concentrations (5, 20, 50, and 100 μg/ml) and then reacted for 24 hours in the presence or absence of LPS ([…]). DMEM medium for BV2 cells and the fresh medium containing LPS (1 μg/ml) and the sample were treated at the same time and cultured for 24 hours. The amount of NO produced was determined using Griess reagent in which 100 μl of cell culture supernatant and 100 μl of Griess reagent [1% (w/v) sulfanilamide, 0.1% (w/v) naphthyl ethylenediamine in 2.5% (v/v) phosphoric acid] were mixed and reacted on a 96-well plate for 10 minutes, and then an ELISA reader was used to measure absorbance at 540 nm. Standard concentration curves were obtained by stepwise dilution of sodium nitrite (NaNO2).

p38 = assay: Western blotting of LPS-induced p38 phosphorylation in BV2 cells; type: cell-based, mouse
Description: BV2 cells were placed in a 6-well plate at 7.5×10^5 cells/well, and stabilized at 37° C. and 5.0% CO2 for 12 hours. After that, LPS and the Fomes fomentarius CHCl3 fractions, the nonadecanone (2-Nonadecanone) or the docosenol (cis-13-Docosenol) compounds were placed according to groups and were incubated for 1 hour. The cell culture was collected and used for cytokine analysis. All the cell culture was removed, and then 1 ml of dPBS was dispensed to each well to wash and remove the wells. 200 μl of the lysis buffer was dispensed per well and the cells attached to the bottom of the well were removed with a cell scriper, and then were slowly mixed and reacted for […] on ice at 4° C. The cells were removed with a scriper again and all the lysis solution was collected. The collected lysis solution was centrifuged at 15,000 rpm for 15 minutes at 4° C. so that only the supernatant was collected. In order to plot standard curves for protein quantification, a standard BSA solution ([…]) and a dilution were prepared in which bradford solution and D.W. were diluted with 4:1. After the bradford dilution was dispensed in each 200 μl to 96-well, the standard BSA solution and the cell lysis supernatant were dispersed in a volume of 10 μl per well, and then they were mixed by pipetting. After 10 minutes, the protein was quantitated by measuring the absorbance at 595 nm in a reader. The subsequent procedures were carried out in the same manner as in the quantitative analysis of the protein of Example 3-3.

Sequence of AChE (P22303 32-614): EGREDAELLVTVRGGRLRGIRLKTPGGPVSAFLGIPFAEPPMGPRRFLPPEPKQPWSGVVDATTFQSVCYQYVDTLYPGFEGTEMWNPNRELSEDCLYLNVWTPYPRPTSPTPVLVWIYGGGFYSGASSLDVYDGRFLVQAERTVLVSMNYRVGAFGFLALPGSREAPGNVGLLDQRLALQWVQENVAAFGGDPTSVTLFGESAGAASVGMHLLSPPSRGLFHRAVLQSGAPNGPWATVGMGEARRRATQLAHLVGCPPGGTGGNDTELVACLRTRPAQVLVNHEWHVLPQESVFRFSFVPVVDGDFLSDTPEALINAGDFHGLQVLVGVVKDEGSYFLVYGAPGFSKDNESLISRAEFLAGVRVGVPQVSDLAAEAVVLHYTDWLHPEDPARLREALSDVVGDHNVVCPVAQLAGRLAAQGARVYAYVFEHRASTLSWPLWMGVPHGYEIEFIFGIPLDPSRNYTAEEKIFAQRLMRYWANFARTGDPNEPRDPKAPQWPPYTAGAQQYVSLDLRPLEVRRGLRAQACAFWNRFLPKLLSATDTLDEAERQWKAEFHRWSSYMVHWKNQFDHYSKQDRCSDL

| SMILES | inhibition at 10 µg/mL (AChE) [%] | inhibition at 20 µg/mL (AChE) [%] | inhibition at 40 µg/mL (AChE) [%] | inhibition at 80 µg/mL (AChE) [%] | inhibition at 160 µg/mL (AChE) [%] | inhibition at 320 µg/mL (AChE) [%] | inhibition at 640 µg/mL (AChE) [%] | NO production (nitrite) ([1]; 5 μg/ml) | NO production (nitrite) ([1]; 20 μg/ml) | NO production (nitrite) ([1]; 50 μg/ml) | NO production (nitrite) ([1]; 100 μg/ml) | p-p38/p-38 ratio (%), expression ratio (vehicle 100%) (p38; 5 μg/ml) | p-p38/p-38 ratio (%), expression ratio (vehicle 100%) (p38; 20 μg/ml) | p-p38/p-38 ratio (%), expression ratio (vehicle 100%) (p38; 50 μg/ml) | p-p38/p-38 ratio (%), expression ratio (vehicle 100%) (p38; 100 μg/ml) |
| --- | --- | --- | --- | --- | --- | --- | --- | --- | --- | --- | --- | --- | --- | --- | --- |
| CCCCCCCC/C=C\CCCCCCCCCCCCO [docosenol, cis-13-Docosenol] | 18.1 ± 2.6 | 23.1 ± 3.8 | 28.4 ± 1.9 | 35.9 ± 5.1 | 40.9 ± 6.8 | 55.1 ± 4.9 | 59.6 ± 6.6 | 8.04±0.55 | 5.56±0.61 | 4.42±0.48 | 2.76±40.59 | about 69% | about 48% | about 36% | about 25% |
| CCCCCCCCCCCCCCCCCC(C)=O [nonadecanone, 2-Nonadecanone] | 11.6 ± 1.1 | 18.9 ± 0.9 | 23.4 ± 2.8 | 30.1 ± 1.8 | 35.1 ± 3.1 | 41.5 ± 2.2 | 41.9 ± 3.8 | 2.98±0.78 | 2.35±0.68 | 1.99±0.39 | 1.62±0.41 | about 75% | about 54% | about 42% | about 29% |
